This is an account of results in patent publication US20100179324A1, “ANTI-TUMOR AGENT COMPRISING SULPHOSTIN OR SULPHOSTIN-RELATED COMPOUND AS THE ACTIVE INGREDIENT” (Microbial Chemistry Research Foundation, priority 2007, published 2010).

Data set [1] concerns Colon26 colorectal cancer cells. In words: Anti-tumor effect on Colon26 (Experimental Example 1), transplanted mice. In kind it is in vivo. The following applies: for suppression rate: tumor weight Day 28 vs control group. The protocol: (§1) Also, in the Examples, the “suppression rate” was calculated using the following formula.
(§2) Suppression rate (%)=(1−tumor weight in the administration group/tumor weight in the control group)×100
(§3) Six-week-old BALB/cAnNCrj female mice were used for this test. The following six groups were provided: Group 1 in which physiological saline (solvent) was administered; Group 2 in which sulphostin was administered at a dose of 200 mg/kg; Group 3 in which sulphostin was administered at a dose of 50 mg/kg; Group 4 in which PT-100 was administered at a dose of 200 mg/kg; Group 5 in which PT-100 was administered at a dose of 50 mg/kg; and Group 6 in which Furtulon was administered at a dose of 30 mg/kg. The number of animals was set to eight in Group 1 (control group) and to six in each of Groups 2 to 6 (drug administration groups).
(§4) On Day 0, 2×10^5 Colon26 colorectal cancer cells were transplanted into the groin of the mice. Each of sulphostin and PT-100 was intraperitoneally administered to the mice at the above dose once in a day on Days 1 to 6, 8 to 13, 15 to 20 and 22 to 27. Furtulon was orally administered following a similar administration schedule. In use, sulphostin and PT-100 were each diluted with physiological saline to have an intended concentration; and Furtulon was suspended in 0.5% sodium carboxymethyl cellulose and then diluted with physiological saline to have an intended concentration. On Day 28, the tumor was taken out from each mouse and weighed, to thereby determine the effect of each drug. In addition, the presence or absence of side effects of each drug was confirmed by monitoring a change in body weight of the mouse in the course of the treatment and observing the degree of hair loss in the mouse after administration.

Data set [2] shares this test system. As to the kind of experiment: Anti-tumor effect on advanced Colon26 (Experimental Example 2), drug from Day 10. In kind it is in vivo, mouse. The protocol: as §1, §2
as §3, with “of 50” for “of 200”, “of 3.1” for “of 50”, “to seven” for “to eight”, “to five” for “to six”
as §4, with “mice. Administration of each drug was initiated from Day 10 when the transplanted cancer cells were thought to grow.” for “mice.”, “Days 10” for “Days 1”, “to 18 and 20” for “to 6, 8”, “to 25.” for “to 13, 15 to 20 and 22 to 27.”, “mouse” for “mouse in the course of the treatment”, “mouse in the course of the treatment.” for “mouse after administration.”

Data set [3] has as its system B16-BL6 melanoma cells. As to the kind of experiment: Anti-tumor effect on B16-BL6 (Experimental Example 3), transplanted mice. The settings on record: tumor weight Day 21 vs control group. It counts as in vivo, mouse. The protocol: as §1, §2
Five-week-old C57BL/6NCrj female mice were used for this test. The following three groups were provided: Group 1 in which physiological saline (solvent) was administered; Group 2 in which sulphostin was administered at a dose of 200 mg/kg; and Group 3 in which sulphostin was administered at a dose of 50 mg/kg. The number of animals was set to seven in Group 1 (control group) and to five in each of Groups 2 and 3 (drug administration groups).
On Day 0, 2×10^5 B16-BL6 melanoma cells were transplanted into the groin of the mice. Twenty four hours after transplantation, sulphostin was intraperitoneally administered to the mice at the above respective doses once in a day on Days 1 to 5, 7 to 12, and 14 to 19. In use, sulphostin was diluted with physiological saline to have an intended concentration. On Day 21, the tumor was taken out from each mouse and weighed, to thereby determine the effect of sulphostin.

A short description of data set [4]: Toxicity test on mouse (Experimental Example 4). It counts as in vivo. The following applies: i.p. twice a day for 10 days; for Heart weight (Avg.) / Left kidney weight (Avg.) / Liver weight (Avg.) / Lung weight (Avg.) / Right kidney weight (Avg.) / Spleen weight (Avg.) / Thymus weight (Avg.): dissected Day 19; for change in body weight: normal mice. How it is done: Four-week-old female ICR mice (Crj: CD-1) were used for this test. The following six groups were provided: Group 1 in which physiological saline (solvent) was administered; Group 2 in which sulphostin was administered at a dose of 50 mg/kg; Group 3 in which sulphostin was administered at a dose of 25 mg/kg; Group 4 in which PT-100 was administered at a dose of 50 mg/kg; Group 5 in which PT-100 was administered at a dose of 25 mg/kg; Group 6 in which PT-100 was administered at a dose of 12.5 mg/kg; and Group 7 in which PT-100 was administered at a dose of 6.3 mg/kg. Note that each of the above doses is a dose for each administration. The number of animals was set to three in each of the groups. Each drug was intraperitoneally administered to each mouse twice in a day for 10 consecutive days, and the mouse was weighed at an appropriate time and monitored over time. On Day 19 after initiation of administration, each mouse was dissected under anesthesia and examined for remarks.

For data set [5], the system named is EL-4 mouse thymoma cells. In words: Test on cell toxicity, MTT method, EL-4. The settings on record: 48 h, EL4 thymoma, two days incubation. In kind it is cell-based. How it is done: (§5) The inhibitory effect of sulphostin on the proliferation of tumor cells in vitro was investigated. The culture liquid used was a 10% FCS-containing RPMI1640 medium, and incubation was performed at 37° C. in 5% CO2-air. EL-4 mouse thymoma cells, Colon-26 mouse colon cancer cells and B16-BL6 mouse melanoma cells were incubated at 1×10^4 cells/well for two days, and then the number of cells was measured by the MTT method. Specifically, MTT (0.4% and 10 μL) was added to each cell culture, followed by incubating for four hours. Further, 20% sodium dodecyl sulphate (SDS) was added thereto in an amount of 100 μL, and each plate was measured for absorbance at 570 nm and 690 nm using a microplate reader. Sulphostin was added to the wells simultaneously with the initiation of the tumor cell incubation.
(In general: Formazan colour is commonly taken as a measure of viable cells.)

Data set [6] relates to Colon-26 mouse colon cancer cells. As to the kind of experiment: Test on cell toxicity, MTT method, Colon-26. It counts as cell-based. The following applies: Colon 26, 48 h, Colon26 colon cancer, two days incubation. How it is done:
as §5

In data set [7] the test system is B16-BL6 mouse melanoma cells. In words: Test on cell toxicity, MTT method, B16-BL6. The following applies: 48 h, two days incubation. In kind it is cell-based. How it is done:
as §5

The mark [8] stands for this setting: 50 mg/kg intraperitoneal once a day from Day 1.
[9] abbreviates: 50 mg/kg intraperitoneal, six mice per group.
[10] abbreviates: 200 mg/kg intraperitoneal once a day from Day 1.
Where [11] appears, read: 200 mg/kg intraperitoneal, six mice per group.
[12] abbreviates: 3.1 mg/kg intraperitoneal from Day 10, tumor weight Day 28 vs control group.
Setting [13] is: 50 mg/kg intraperitoneal from Day 10, tumor weight Day 28 vs control group.

On to `C[C@H]1O[C@@H](n2cc(F)c(=O)[nH]c2=O)[C@H](O)[C@@H]1O` [Furtulon, Doxifluridine], for which the tumor regression result in data set [1] (30 mg/kg oral) is reported as “the tumor was not regressed”. The suppression rate in data set [1] (30 mg/kg oral once a day from Day 1) was determined as 56.9%; in data set [2] (30 mg/kg oral from Day 10, tumor weight Day 28 vs control group) it was 47.0%.
In the case of `N[C@H]1CCCN([P@@](N)(=O)NS(=O)(=O)O)C1=O` [Sulphostin, 3(S)-amino-1-((R)-amino(sulfoamino)phosphinyl)-2-piperidone], the “hair loss by continuous administration” value in data set [1] (50 mg/kg intraperitoneal) and in data set [1] (200 mg/kg intraperitoneal) was “hardly observed” in each case. Moreover, the “loss of body weight by continuous administration” value in data set [1] (50 mg/kg intraperitoneal) is reported as “not observed”; in data set [1] (200 mg/kg intraperitoneal) it was “not observed”; in data set [2] (intraperitoneal from Day 10, dose not specified (groups 50 and 3.1 mg/kg)), “not observed”. Besides, the suppression rate in data set [1] (setting [8]) was 87.8%; in data set [1] (setting [10]) it was 91.7%; in data set [3] (setting [8]) it was 53.3%; in data set [3] (setting [10]) it was 51.7%. Moreover, the tumor regression result in data set [1] (setting [9]) and in data set [1] (setting [11]) was “two out of six mice” each time. Also, the figures for the “suppression rate on tumor weight” value in data set [2] (setting [12]) and in data set [2] (setting [13]) were 66.2% and 87.3%, respectively. The “abnormalities during monitoring and in remarks after dissection” value in data set [4] (25 mg/kg per administration) and in data set [4] (50 mg/kg per administration) was “nor did they show any abnormalities” in each case. The “Heart weight (Avg.)” value in data set [4] (25 mg/kg per administration) turned out to be 118.3 mg; in data set [4] (50 mg/kg per administration), 120 mg. Also, the “Left kidney weight (Avg.)” value in data set [4] (25 mg/kg per administration) is 204.7 mg; in data set [4] (50 mg/kg per administration) it was 202.3 mg. The results for the “Liver weight (Avg.)” value in data set [4] (25 mg/kg per administration) and in data set [4] (50 mg/kg per administration) were 1769.3 mg and 1803.7 mg, respectively. In addition, the entries for the “Lung weight (Avg.)” value in data set [4] (25 mg/kg per administration) and in data set [4] (50 mg/kg per administration) were 182 mg and 165.3 mg, respectively. The “Right kidney weight (Avg.)” value is on record as 210.3 mg in data set [4] (25 mg/kg per administration) and 206.7 mg in data set [4] (50 mg/kg per administration). In addition, the results for the “Spleen weight (Avg.)” value in data set [4] (25 mg/kg per administration) and in data set [4] (50 mg/kg per administration) were 127.7 mg and 141.7 mg, respectively. The “Thymus weight (Avg.)” value in data set [4] (25 mg/kg per administration) is given as 63.7 mg; in data set [4] (50 mg/kg per administration), 76 mg. Besides, the “change in body weight” value in data set [4] (25 mg/kg per administration) and in data set [4] (50 mg/kg per administration) was “did not decrease in body weight” in each case. Moreover, the IC50 in data set [5], in data set [6] and in data set [7] was greater than 100 µg/mL each time.
In the case of `CC(C)[C@H](N)C(=O)N1CCC[C@H]1B(O)O` [PT-100], the “hair loss by continuous administration” value in data set [1] (50 mg/kg intraperitoneal) and in data set [1] (200 mg/kg intraperitoneal) was “extremely observed throughout the body” throughout. For the same molecule, the suppression rate in data set [1] (setting [8]) was 66.7%; in data set [1] (setting [10]), 62.3%. The tumor regression entry in data set [1] (setting [9]) and in data set [1] (setting [11]) was “the tumor was not regressed” each time. In addition, the “loss of body weight by continuous administration” value in data set [1] (200 mg/kg intraperitoneal) is reported as “considerably observed”. The “suppression rate on tumor weight” value was 51.5% in data set [2] (setting [12]) and 70.8% in data set [2] (setting [13]).

A word on the IC50: it is the concentration that inhibits the measured activity by half. A lower IC50 goes with greater potency in that assay.
